The target in this experiment is T1, recombinant human androgen receptor (hAR) (Homo sapiens, UniProt P10275).
T1 construct: made in house; host or cells: baculovirus/Sf9 insect cells (crude extract)
T1 sequence (P10275 1-920): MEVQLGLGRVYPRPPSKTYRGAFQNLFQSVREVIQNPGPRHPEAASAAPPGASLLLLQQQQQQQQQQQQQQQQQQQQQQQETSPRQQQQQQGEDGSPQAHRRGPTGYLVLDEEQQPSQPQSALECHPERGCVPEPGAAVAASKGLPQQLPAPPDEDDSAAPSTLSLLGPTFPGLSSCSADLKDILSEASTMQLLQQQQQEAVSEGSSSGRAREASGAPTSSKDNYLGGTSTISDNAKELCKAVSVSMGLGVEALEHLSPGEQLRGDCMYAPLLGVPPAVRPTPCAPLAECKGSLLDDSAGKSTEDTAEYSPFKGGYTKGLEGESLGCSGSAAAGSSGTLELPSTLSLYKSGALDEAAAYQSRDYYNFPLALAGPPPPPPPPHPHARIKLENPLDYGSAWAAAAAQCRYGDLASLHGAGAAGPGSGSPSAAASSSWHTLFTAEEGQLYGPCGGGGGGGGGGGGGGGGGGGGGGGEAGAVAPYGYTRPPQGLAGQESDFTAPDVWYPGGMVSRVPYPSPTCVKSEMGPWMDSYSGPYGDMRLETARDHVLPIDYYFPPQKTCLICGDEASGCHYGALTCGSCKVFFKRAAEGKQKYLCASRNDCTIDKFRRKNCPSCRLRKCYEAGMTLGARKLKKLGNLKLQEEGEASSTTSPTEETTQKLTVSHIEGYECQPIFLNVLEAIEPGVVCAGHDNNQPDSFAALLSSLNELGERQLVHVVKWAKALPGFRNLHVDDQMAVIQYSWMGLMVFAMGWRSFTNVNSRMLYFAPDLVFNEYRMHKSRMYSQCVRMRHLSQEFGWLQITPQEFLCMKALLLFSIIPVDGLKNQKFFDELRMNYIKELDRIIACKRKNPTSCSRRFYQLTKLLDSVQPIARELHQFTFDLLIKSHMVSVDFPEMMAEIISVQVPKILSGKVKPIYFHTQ
As to the kind of experiment: Human androgen receptor binding analysis (3H-DHT competitive binding). How it is done:
The following is a brief description of the assay that determines the affinity of a compound for the recombinant human androgen receptor (hAR). Competitive binding analysis is performed on baculovirus/Sf9 generated hAR extracts in the presence or absence of differing concentrations of drug and a fixed concentration of ^3H-dihydrotestosterone (^3H-DHT) as tracer. This binding assay method is a modification of a protocol previously described (Chang, et. al. J. Steroid Biochem. 20(1):11-17 1984). Briefly, progressively decreasing concentrations of compounds are incubated in the presence of hAR extract (Chang et al. P.N.A.S. Vol. 89, pp. 5546-5950, 1992), hydroxylapatite and 1 nM ^3H-DHT for one hour at 4° C. Subsequently, the binding reactions are washed three times to completely remove excess unbound ^3H-DHT. hAR bound ^3H-DHT levels are determined in the presence of compounds (=competitive binding) and compared to levels bound when no competitor is present (=maximum binding). Compound binding affinity to the hAR is expressed as the concentration of compound at which one half of the maximum binding is inhibited (the IC50).

Structures are written as SMILES.

For the compound `CC[C@H]1CCCCN1c1cc(F)c(C#N)c(F)c1` [Example 2, 4-(2-(S)-Ethyl-piperidin-1-yl)-2,6-difluoro-benzonitrile], the concentration for half-maximal inhibition (IC50) amounted to 1.15 nM. As for `CC[C@H]1CCCCN1c1ccc(C#N)c(Cl)c1` [Example 3, 2-Chloro-4-(2-(S)-ethyl-piperidin-1-yl)-benzonitrile], the figure is 3.67 nM; as for `CC[C@H]1CCCCN1c1ccc(C#N)c(C#N)c1` [Example 4, 4-(2-(S)-Ethyl-piperidin-1-yl)-phthalonitrile], 7.75 nM. As for `CCC1CCCCN1c1ccc(C#N)c(C#N)c1` (stereo not shown) [Example 5, 4-(2-Ethyl-piperidin-1-yl)-phthalonitrile], the figure is 5.35 nM.

Consider `CCC1CCCCN1c1ccc(C#N)c(C(F)(F)F)c1` (stereo not shown) [Example 6, 4-(2-Ethyl-piperidin-1-yl)-2-trifluoromethyl-benzonitrile], for which the IC50 is 1.83 nM. In the case of `CC[C@@H](C)N(CC)c1ccc(C#N)c(Cl)c1` [Example 8, 4-((R)-sec-Butyl-ethyl-amino)-2-chloro-benzonitrile] it was 1.4 nM. In the case of `CC[C@@H](C)N(C)c1ccc(C#N)c(Cl)c1` [Example 9, 4-((R)-sec-Butyl-methyl-amino)-2-chloro-benzonitrile], the IC50 was found to be 3.63 nM.

`CCCN(c1ccc(C#N)c(Cl)c1)[C@H](C)CC` [Example 10, 4-((R)-sec-Butyl-propyl-amino)-2-chloro-benzonitrile]: the IC50 is 3.28 nM.

For the compound `CCCN(c1ccc(C#N)c(C#N)c1)[C@H](C)CC` [Example 11, 4-((R)-sec-Butyl-propyl-amino)-phthalonitrile], the IC50 turned out to be 8 nM. In the case of `CC[C@@H](C)N(CC)c1ccc(C#N)c(C(F)(F)F)c1` [Example 12, 4-((R)-sec-Butyl-ethyl-amino)-2-trifluoromethyl-benzonitrile] it was 3.21 nM. As for `CC[C@@H](C)N(C)c1ccc(C#N)c(C#N)c1` [Example 13, 4-((R)-sec-Butyl-methyl-amino)-phthalonitrile], the figure is 2.9 nM; as for `CC[C@@H](C)N(CC)c1ccc(C#N)c(C#N)c1` [Example 14], 3.8 nM; as for `CCCN(CCC)c1ccc(C#N)c(C(F)(F)F)c1` [Example 15, 4-Dipropylamino-2-trifluoromethyl-benzonitrile], 1.68 nM. For `CCN(c1ccc(C#N)c(C#N)c1)C(C)C` [Example 16, 4-(Ethyl-isopropyl-amino)-phthalonitrile], the 50% inhibitory concentration (IC50) came to 3.06 nM.

For `CCC(C)N(C)c1ccc(C#N)c(C(F)(F)F)c1` (stereo not shown) [Example 17, 4-(sec-Butyl-methyl-amino)-2-trifluoromethyl-benzonitrile], the IC50 was 3.99 nM.

Take `CCCN(c1ccc(C#N)c(C#N)c1)C(C)CC` (stereo not shown) [Example 18, 4-(sec-Butyl-propyl-amino)-phthalonitrile]: the half-maximal inhibitory concentration (IC50) came to 2.49 nM. Turning to `CCCN(CCC)c1ccc(C#N)c(C#N)c1` [Example 19, 4-Dipropylamino-phthalonitrile], the IC50 is 6.44 nM.

Turning to `CCN(CC)c1ccc(C#N)c(C(F)(F)F)c1` [Example 20, 4-Diethylamino-2-trifluoromethyl-benzonitrile], the IC50 amounted to 2.62 nM.

Regarding `CCC(C)N(CC)c1ccc(C#N)c(C(F)(F)F)c1` (stereo not shown) [Example 21, 4-(sec-Butyl-ethyl-amino)-2-trifluoromethyl-benzonitrile], the half-inhibitory concentration (IC50) is 1.71 nM. As for `CCCN(CC)c1ccc(C#N)c(Cl)c1` [Example 22, 2-Chloro-4-(ethyl-propyl-amino)-benzonitrile], the figure is 5.4 nM; as for `CC(C)N(C)c1ccc(C#N)c(Cl)c1` [Example 23, 2-Chloro-4-(isopropyl-methyl-amino)-benzonitrile], 4.21 nM; as for `CC(C)[C@@H](C)N(C)c1ccc(C#N)c(Cl)c1` [Example 25, 2-Chloro-4-[(1-(R), 2-dimethyl-propyl)-methyl-amino]-benzonitrile], 45.6 nM. In the case of `CC[C@H](C)N(C)c1ccc(C#N)c(C(F)(F)F)c1` [Example 26] it was 5.47 nM; in that of `CC[C@H](C)N(CC)c1ccc(C#N)c(C(F)(F)F)c1` [Example 27, 4-((S)-sec-Butyl-ethyl-amino)-2-trifluoromethyl-benzonitrile], 7.32 nM. As for `CC1CCCN1c1ccc(C#N)c(C(F)(F)F)c1` (stereo not shown) [Example 28, 4-(2-Methyl-pyrrolidin-1-yl)-2-trifluoromethyl-benzonitrile], the figure is 1.5 nM. In the case of `CCCC1CCCCN1c1ccc(C#N)c(C(F)(F)F)c1` (stereo not shown) [Example 30, 4-(2-Propyl-piperidin-1-yl)-2-trifluoromethyl-benzonitrile], the IC50 came to 2.33 nM. As for `CCC1CC(CO)CCN1c1ccc(C#N)c(C(F)(F)F)c1` (stereo not shown) [Example 31, 4-(2-Ethyl-4-hydroxymethyl-piperidin-1-yl)-2-trifluoromethyl-benzonitrile], the figure is 9.63 nM. On to `CCCN(c1ccc(C#N)c(C(F)(F)F)c1)[C@H](C)CC` [Example 32, 4-((R)-sec-Butyl-propyl-amino)-2-trifluoromethyl-benzonitrile], for which the concentration for half-maximal inhibition (IC50) was found to be 5.97 nM.

As to `C=CCN(C)c1ccc(C#N)c(C(F)(F)F)c1` [Example 33, 4-(Allyl-methyl-amino)-2-trifluoromethyl-benzonitrile], the IC50 is 3.82 nM. As for `CC1CCCCN1c1ccc(C#N)c(C(F)(F)F)c1` (stereo not shown) [Example 34, 4-(2-Methyl-piperidin-1-yl)-2-trifluoromethyl-benzonitrile], the figure is 24.8 nM; as for `CCOC[C@H]1CCCN1c1ccc(C#N)c(C(F)(F)F)c1` [Example 35, 4-(2(R)-(Ethoxy-methyl)-pyrrolidin-1-yl)-2-trifluoromethyl-benzonitrile], 2.07 nM; as for `N#Cc1ccc(N2CCCCC2CCO)cc1C(F)(F)F` (stereo not shown) [Example 36, 4-(2-(2-Hydroxyethyl)-piperidin-1-yl)-2-trifluoromethyl-benzonitrile], 27.7 nM. As for `COC[C@H]1CCCN1c1ccc(C#N)c(C(F)(F)F)c1` [Example 37, 4-(2(R)-(Methoxy-methyl)-pyrrolidin-1-yl)-2-trifluoromethyl-benzonitrile], the figure is 10.1 nM; as for `CCCCCN(CC)c1ccc(C#N)c(C(F)(F)F)c1` [Example 38, 4-(Ethyl-pentyl-amino)-2-trifluoromethyl-benzonitrile], 11.6 nM.

For `CCCCN(CCC)c1ccc(C#N)c(C(F)(F)F)c1` [Example 39, 4-(Butyl-propyl-amino)-2-trifluoromethyl-benzonitrile], the IC50 is 2 nM. As for `CC(C)N(C)c1ccc(C#N)c(C(F)(F)F)c1` [Example 40, 4-(Isopropyl-methyl-amino)-2-trifluoromethyl-benzonitrile], the figure is 0.99 nM. In the case of `CCCCCN(CCC)c1ccc(C#N)c(C(F)(F)F)c1` [Example 41, 4-(Pentyl-propyl-amino)-2-trifluoromethyl-benzonitrile] it was 9.39 nM; in that of `N#Cc1ccc(N2CCCCC2CO)cc1C(F)(F)F` (stereo not shown) [Example 42, 4-(2-Hydroxymethyl-piperidin-1-yl)-2-trifluoromethyl-benzonitrile], 15.3 nM; in that of `CCCCN(CC)c1ccc(C#N)c(C(F)(F)F)c1` [Example 43, 4-(Butyl-ethyl-amino)-2-trifluoromethyl-benzonitrile], 7.58 nM.

Take `CCCCN(CCCC)c1ccc(C#N)c(C(F)(F)F)c1` [Example 44, 4-(Dibutyl-amino)-2-trifluoromethyl-benzonitrile]: the half-inhibitory concentration (IC50) came to 12.8 nM. In the case of `N#Cc1ccc(N2CCC[C@@H]2CO)cc1C(F)(F)F` [Example 45, 4-(2(R)-(Hydroxy-methyl)-pyrrolidin-1-yl)-2-trifluoromethyl-benzonitrile] it was 22.7 nM.

As to `CCCN(c1ccc(C#N)c(Cl)c1)C(C)C` [Example 46, 2-Chloro-4-(isopropyl-propyl-amino)-benzonitrile], the IC50 was 9.79 nM.

`CCN(CC)c1ccc(C#N)c(Cl)c1` [Example 47, 2-Chloro-4-(diethyl-amino)-benzonitrile]: the IC50 is 2.98 nM.

What is called IC50 is the concentration that inhibits the measured activity by half.

(Values after patent US20080045504A1, “Benzonitrile Derivatives to Treat Musculoskeletal Frailty” (PFIZER PRODUCTS INC., priority 2004, published 2008).)
